Assays:
lung cancer cell lines = assay: Proliferation assay (Cyquant DNA content), adherent (2D) conditions; type: cell-based; settings: adherent (2D) growth conditions
Experimental: Summary: To test the functional effect of inhibiting both EGFR & IGFIR signaling, the growth inhibition under adherent (2D) and non adherent (3D) conditions were evaluated. […] In order to test the effect of this combination under 3D non-adherent conditions, the inventors developed an ultra low attachment plate based proliferation assay.
Methods: Cells (˜3×10̂3) were seeded in adherent or non-adherent (ultra-low attachment plates; Corning) 96 well plates. […] The media and drugs were slowly replaced every 3 days and at the end of the assay (as indicated) plates were harvested and DNA content was measured using Cyquant assays as described by the manufacturer. The intrinsic growth was calculated based on the increase in DNA content from Day 1 to the end of the assay.

[1] = test system: PI3K pathway (P-AKT, PS6K, PS6RP); assay: PI3K pathway western blot in xenograft tumors; design: species or system nu/nu mice; settings: following MK-0646 treatment, previous in vivo data
Experimental: (§1) Methods: Total protein (500 microgram) from xenograft samples was isolated at the end of the efficacy study (4 weeks after indicated doses). Samples from 6 independent tumors were analyzed for east treatment. The proteins were western blotted and visualized as described previously (See FIG. 2).

IGF1R = assay: Total IGF1R level in xenograft tumors (western blot / ELISA); type: in vivo, nu/nu mice
Experimental: as §1

NSCLC [2] = settings: phase II, previously treated NSCLC patients, 2004; cited from earlier work
NSCLC [3] = settings: standard chemotherapy plus EGFR inhibitor; cited from earlier work
[4] = cited from earlier work
NSCLC [5] = settings: cancer no longer responding to chemotherapy; cited from earlier work
[6] = test system: carcinoma which does not express the EGF receptor; settings: mouse, in vivo; cited from earlier work
[7] = test system: human mammary carcinoma which expresses EGFR; settings: mouse, in vivo; cited from earlier work

In the case of “MK-0646: humanized antibody that binds IGF-1R as well as the IR/IGF-1 hybrid receptor”, the growth inhibition (lung cancer cell lines) was “no significant growth inhibition”, the P13K pathway [1] was “inhibition was also observed” and the “total levels of IGF1R” value (IGF1R; compared to vehicle or Erlotinib alone, FIG. 6) was “able to reduce the total levels of IGF1R”. The IGF1R receptor level (IGF1R; previous in vivo data, NCI-H2122 xenograft) was “down regulation”.

In the case of `C#Cc1cccc(Nc2ncnc3cc(OCCOC)c(OCCOC)cc23)c1.Cl` [Erlotinib], the “participants whose tumors responded to treatment” value (NSCLC [2]) is listed as 12%, the “outcome versus chemotherapy alone” value (NSCLC [3]) is listed as “did no better” and the overall survival benefit ([4]; in vivo) is listed as “did not help patients live any longer overall”. The time to progression ([4]; placebo group 4.9 months) was 5.1 months, the median survival ([4]; placebo group 10.5 months) was 10.6 months and the survival versus placebo (NSCLC [5]) was “about two months longer”.

In the case of `O=CN/C=C/c1cc(O)ccc1O` [erbstatin], the tumor growth [6] is given as “without effect” and the tumor growth [7] is given as “selectively attenuates the growth”.

In the case of `COc1cc2ncnc(Nc3ccc(F)c(Cl)c3)c2cc1OCCCN1CCOCC1` [gefitinib], the “outcome versus chemotherapy alone” value (NSCLC [3]) is given as “did no better”.
